{
  "source": "patent US20100173915A1",
  "about": "“PHARMACEUTICAL COMPOSITIONS FOR THE TREATMENT OF CHRONIC HEART FAILURE COMPRISING PYRAZOLOPYRIMIDINONE DERIVATIVE COMPOUND” (DONG-A PHARMACEUTICAL. CO., LTD, priority 2007, published 2010)",
  "key": {"[1]": {"test_system": "chronic heart failure-induced rats (abdominal aorta-to-inferior vena cava fistula)", "experiment": "M-mode echocardiography in aortocaval fistula rat model of chronic heart failure", "type": "in vivo, Sprague-Dawley rats", "details": "CHF rats, 30 mg/kg orally for 8 weeks, mean±SD", "method": "(§1) Male Sprague-Dawley rats, weighing 220-240 g, were randomly divided into three groups: a normal control group (Normal), a heart failure control group (CHF) and a treatment group (CHF plus cpd.1), each group consisting of seven rats. The pyrazolopyrimidinone derivative was orally administered to heart failure-developed animals of the treatment group in a dose of 30 mg/kg. Normal control animals were subjected to a sham operation. […] After 8 weeks, 5 ml/kg of a solvent was orally administered to the normal control and heart failure control groups for 8 weeks, and the pyrazolopyrimidinone derivative was orally administered to the treatment group at a dose of 30 mg/kg for 8 weeks. Then, rats were anesthetized with pentobarbital (50 mg/kg, i.p.), and subjected to M-mode echocardiography in order to evaluate interventricular septum wall thickness (IWT) at end-systole (S) and end-diastole (D) of the left ventricle, posterior left ventricular wall thickness (PWT), left ventricular end-systolic dimension (LVESD), and left ventricular end-diastolic dimension (LVEDD). The relative wall thickness (RWT) was calculated according to the following equation: [IWT(D)+PWT(D)]/LVEDD, and is given in Table 1, below."}, "[2]": {"test_system": "collagen deposition (ventricular fibrosis)", "experiment": "Collagen deposition in left ventricular tissue (Masson's trichrome) as marker of ventricular fibrosis", "type": "in vivo, Sprague-Dawley rats", "details": "CHF rats, 30 mg/kg orally for 8 weeks, mean±SD, CHF control 0.928±0.228, normal 0.384±0.103", "method": "(§2) Male Sprague-Dawley rats, weighing 220-240 g, were randomly divided into three groups: a normal control group\n(§3) (Normal), a heart failure control group (CHF) and a treatment group (CHF plus cpd.1), each group consisting of seven rats. The pyrazolopyrimidinone derivative was orally administered to heart failure-developed animals of the treatment group in a dose of 30 mg/kg.\nas §1, with “Normal” for “Male Sprague-Dawley rats, weighing 220-240 g, were randomly divided into three groups: a normal control group (Normal), a heart failure control group (CHF) and a treatment group (CHF plus cpd.1), each group consisting of seven rats. The pyrazolopyrimidinone derivative was orally administered to heart failure-developed animals of the treatment group in a dose of 30 mg/kg. Normal”\n(§4) After the echocardiographic measurements, blood samples were collected from abdominal aortas to prepare serum samples. […] All values are expressed as mean±SD."}, "[3]": {"test_system": "atrial natriuretic peptide (ANP)", "experiment": "Serum atrial natriuretic peptide (ANP) levels in heart failure rats", "type": "in vivo, Sprague-Dawley rats", "details": "CHF rats, 30 mg/kg orally for 8 weeks; mean±SD; CHF control 0.040±0.004, normal 0.029±0.003", "method": "as §2, §3\nas §1, with “Normal” for “Male Sprague-Dawley rats, weighing 220-240 g, were randomly divided into three groups: a normal control group (Normal), a heart failure control group (CHF) and a treatment group (CHF plus cpd.1), each group consisting of seven rats. The pyrazolopyrimidinone derivative was orally administered to heart failure-developed animals of the treatment group in a dose of 30 mg/kg. Normal”\nas §4"}, "[4]": {"experiment": "In vivo half-life compared to sildenafil", "details": "longer than sildenafil"}, "[5]": {"experiment": "Physicochemical properties: pKa"}, "[6]": {"experiment": "Physicochemical properties: solubility"}, "[7]": {"target": "phosphodiesterase-5 (PDE-5) (Homo sapiens, UniProt O76074)", "details": "cited from earlier work"}, "[8]": {"test_system": "ANP mRNA", "experiment": "ANP mRNA levels in left ventricular tissue by RT-PCR", "type": "in vivo, Sprague-Dawley rats", "details": "CHF rats, 30 mg/kg orally for 8 weeks, mean±SD, CHF control 0.963±0.114, normal 0.607±0.169", "method": "as §2, §3\nas §1, with “Normal” for “Male Sprague-Dawley rats, weighing 220-240 g, were randomly divided into three groups: a normal control group (Normal), a heart failure control group (CHF) and a treatment group (CHF plus cpd.1), each group consisting of seven rats. The pyrazolopyrimidinone derivative was orally administered to heart failure-developed animals of the treatment group in a dose of 30 mg/kg. Normal”\nas §4"}},
  "data": [
    {"smiles": "CCCOc1ccc(S(=O)(=O)NCCC2CCCN2C)cc1-c1nc2c(CCC)nn(C)c2c(=O)[nH]1", "note": "(stereo not shown) [cpd.1, 5-[2-propyloxy-5-(1-methyl-2-pyrrolidinyleneamidosulfonyl)phenyl]-1-methyl-propyl-1,6-dihydro-7H-pyrazolo(4,3-d)pyrimidine-7-one]", "values": [
      {"measurement": "RWT, relative wall thickness [IWT(D)+PWT(D)]/LVEDD", "setting": "[1]; CHF control 0.34 ± 0.02, normal 0.42 ± 0.05", "value": "0.42 ± 0.05"},
      {"measurement": "IWT(D), interventricular septum wall thickness at end-diastole", "setting": "[1]; CHF control 1.56 ± 0.09, normal 1.81 ± 0.20", "value": "1.74 ± 0.13", "unit": "mm"},
      {"measurement": "PWT(D), posterior left ventricular wall thickness at end-diastole", "setting": "[1]; CHF control 1.64 ± 0.11, normal 1.83 ± 0.13", "value": "1.78 ± 0.04", "unit": "mm"},
      {"measurement": "PWT(S), posterior left ventricular wall thickness at end-systole", "setting": "[1]; CHF control 2.54 ± 0.18, normal 2.89 ± 0.15", "value": "2.80 ± 0.10", "unit": "mm"},
      {"measurement": "IWT(S), interventricular septum wall thickness at end-systole", "setting": "[1]; CHF control 2.56 ± 0.11, normal 2.83 ± 0.17", "value": "2.74 ± 0.11", "unit": "mm"},
      {"measurement": "LVESD, left ventricular end-systolic dimension", "setting": "[1]; CHF control 6.20 ± 0.70, normal 5.43 ± 0.31", "value": "4.68 ± 0.38", "unit": "mm"},
      {"measurement": "LVEDD, left ventricular end-diastolic dimension", "setting": "[1]; CHF control 9.75 ± 0.85, normal 8.69 ± 0.56", "value": "8.45 ± 0.62", "unit": "mm"},
      {"measurement": "amount of collagen deposition in ventricular tissue", "setting": "[2]", "value": "0.604±0.214"},
      {"measurement": "serum ANP levels", "setting": "[3]", "value": "0.033 ± 0.003", "unit": "ng/mL"},
      {"measurement": "in vivo half-life relative to sildenafil", "setting": "[4]", "value": 3, "unit": "times"},
      {"measurement": "pKa1", "setting": "[5]", "value": "about 6.5"},
      {"measurement": "pKa2", "setting": "[5]", "value": "about 12.5"},
      {"measurement": "solubility in acetic acid, methanol and chloroform", "setting": "[6]; acetic acid, methanol and chloroform", "value": "readily dissolved"},
      {"measurement": "solubility in water", "setting": "[6]; water", "value": "difficult to dissolve in water"},
      {"measurement": "inhibitory activity against PDE-5", "setting": "[7]", "value": "strong and selective inhibitory activity"},
      {"measurement": "ANP mRNA levels in left ventricular tissues", "setting": "[8]", "value": "0.739±0.120"}
    ]}
  ]
}
